For the experiment, the system named is Mus musculus. The experiment is described as follows: Analgesic activity was determined after subcutaneous administration in mice using Eddy hot plate assay or Nilsen assay. The format is functional. As to conditions: sc.
Take `COc1ccc2c3c1O[C@H]1[C@@H](O)C=C[C@H]4[C@@H](C2)N(C)CC[C@@]341.COc1ccc2c3c1O[C@H]1[C@@H](O)C=C[C@H]4[C@@H](C2)N(C)CC[C@@]341.O.O=P(O)(O)O.O=P(O)(O)O` [CODEINE PHOSPHATE]: the ED50 turned out to be 6.8 mg/kg.

Turning to `CN1CCCC2(c3ccccc3)CCC1C2.O=C(O)C(=O)O` (stereo not drawn), the ED50 came to 11.7 mg/kg.

As to `Br.Oc1cccc(C23CCCN(CCc4ccccc4)C(CC2)C3)c1` (stereo not drawn), it took a dose of 4.5 mg/kg to reach the 50% effect level (ED50).

In turn, `COc1cccc(C23CCCN(C)C(CC2)C3)c1.O=C(O)C(=O)O` (stereo not drawn) came in with an ED50 of 5.7 mg/kg.

Turning to `Br.C=CCN1CCCC2(c3cccc(OC)c3)CCC1C2` (stereo not drawn), the ED50 was 20 mg/kg.

`Br.COc1cccc(C23CCCNC(CC2)C3)c1` (stereo not drawn) registered an ED50 of 4 mg/kg.

In turn, `Br.COc1cccc(C23CCCN(CCc4ccccc4)C(CC2)C3)c1` (stereo not drawn) gave an ED50 of 10.9 mg/kg.

As for `Br.CN1CCCC2(c3cccc(O)c3)CCC1C2` (stereo not drawn), the ED50 came out at 16.2 mg/kg.

Values taken from ChEMBL document CHEMBL1121990, “Synthesis and pharmacological activity of 6-aryl-2-azabicyclo[4.2.1]nonanes” (1982).
